Some test systems named below: SN12K1 renal; HOP-18 NSCLC; DMS 273 small cell lung; DMS 114 small cell lung; P388/ADR leukemia; P388 leukemia; DLD-1 colon; RXF-631 renal; 786-0 renal; BT-549 breast; MDA-N; XF 498 CNS.
Holding throughout (assay): NCI tumour cell line growth inhibition, 48 h

Several values for one entry are separate records, joined by “and”; a condition that tells them apart may be missing. Equal values may be shown once.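 Growth conditions: 96-well plates. Treatment: test compound, 48 hours, 5 concentrations. Analysis: linear interpolation between bracketing concentrations; unreached endpoints set to highest concentration. GI50 marks 50% less growth. TGI is the concentration that stops growth completely.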

For the molecule `NC(=O)NN=C(CS)CS`, the TGI in the test on SN12K1 renal was 41.6 µM; with HOP-18 NSCLC, 66.4 µM; with DMS 273 small cell lung, 45.1 µM; with DMS 114 small cell lung, 87.5 µM; with P388/ADR leukemia, over 100 µM; in the test on P388 leukemia it was 47.4 µM. For the same molecule, in the test on DLD-1 colon, the TGI is over 65.5 µM.
`CN(C)CCCNc1ccc2ncn3c4ccccc4c(=O)c1c23`: the TGI was 68.4 µM in the test with HOP-18 NSCLC; 26.3 µM in the test on RXF-631 renal; over 100 µM in the test with DMS 114 small cell lung; 33.2 µM in the test with 786-0 renal; 39.6 µM with DLD-1 colon.
Consider `O=c1ccc2cc(O)c(O)cc2o1`, for which the TGI in the test with BT-549 breast, in the test with 786-0 renal and in the test on MDA-N was over 100 µM each time.
The molecule `Cc1ccc(S(=O)(=O)NCCSCCNS(=O)(=O)c2ccc(C)cc2)cc1` showed a TGI in the test with MDA-N of over 100 µM.
For `COc1ccc([C@@H]2ON(C)[C@H]3CN(C)C(=O)[C@@H]23)cc1`, the TGI with MDA-N was over 100 µM.
As to `C/C=C/[P+](c1ccccc1)(c1ccccc1)c1ccccc1`, the values for the TGI with BT-549 breast, in the test with 786-0 renal and in the test with MDA-N were 3 µM, 37.6 µM and 10.6 µM, respectively.
Turning to `Cc1ccc(Oc2ccc(C)cc2[N+](=O)[O-])cc1`, the TGI in the test with XF 498 CNS was 64.5 µM; in the test on HOP-18 NSCLC, over 100 µM; in the test with DMS 273 small cell lung it was over 100 µM; with RXF-631 renal it was over 100 µM; with DMS 114 small cell lung, over 100 µM; with DLD-1 colon, over 100 µM.
Consider `COc1ccc(-c2c3c(nc4nc(SCCc5ccccc5)nc(N)c24)CCCC3)cc1OC`, for which the TGI with BT-549 breast and in the test on MDA-N was over 100 µM in each case.
Take `CCCCCCCSc1nc2c(C(=O)OCC)ncn2c2ccccc12`: the TGI in the test on XF 498 CNS, in the test on DMS 273 small cell lung and with DMS 114 small cell lung was over 100 µM each time.
In the test with MDA-N, `COc1ccc(N2C(=O)C3c4[nH]c5c(C)cccc5c4C4CCC(C(C)(C)C)CC4C3C2=O)cc1` (centres undefined) gave a TGI of over 10 µM.
Consider `CC(=O)C(O)N1C(=O)C=CC1=O` (centres undefined), for which the TGI is 31.5 µM in the test on XF 498 CNS; 31.3 µM and 40.5 µM in the test on HOP-18 NSCLC; 32.2 µM and 28.1 µM in the test with DMS 273 small cell lung; 33.9 µM in the test with RXF-631 renal; 37.7 µM and 11.1 µM with DMS 114 small cell lung; 24.8 µM in the test with BT-549 breast. For the same molecule, the TGI with MDA-N was 25 µM; in the test with DLD-1 colon, 23.6 µM and 3.97 µM. In addition, the GI50 in the test on HOP-18 NSCLC is 17.2 µM; in the test with DMS 273 small cell lung, 18 µM; in the test on DMS 114 small cell lung it was 19.6 µM; in the test on DLD-1 colon, 9.71 µM.
As to `Cc1sc(Cc2ccccc2)nc1-c1ccc(N)cc1`, the TGI with BT-549 breast is 83.4 µM.
For the molecule `NC(=O)CCCC(NCc1c2ccccc2nc2ccccc12)C(=O)O` (centres undefined), the TGI in the test on XF 498 CNS is 61.8 µM; in the test with DMS 273 small cell lung it was 86.7 µM; with DMS 114 small cell lung it was over 100 µM; in the test with 786-0 renal, over 100 µM; in the test on DLD-1 colon it was over 100 µM.
Regarding `O=S(=O)(Sc1ccc(Cl)cc1)c1ccc(Cl)cc1`, the TGI in the test with XF 498 CNS stood at 53.4 µM; in the test with DMS 273 small cell lung it was 29.6 µM; with DMS 114 small cell lung it was 28.6 µM; with 786-0 renal it was 29.5 µM; in the test on DLD-1 colon, 31.6 µM.
For `CC1C(O)C2(Oc3cc4c(c5c3[C@@H](CC5O)[C@H]2C)CCC2Cc3nc5c(nc3C[C@@]42C)CC2CCC3C4=C[C@H]6O[C@@]7(O[C@@](C)(CO)C[C@@H]7O)C(C)[C@@]6(O)[C@]4(C)[C@@H](O)CC3[C@]2(C)C5)OC1(C)C` (some centres undefined), the TGI with XF 498 CNS was 0.343 µM; in the test on SN12K1 renal, 0.194 µM; with HOP-18 NSCLC, over 3.67 µM; in the test on DMS 273 small cell lung, 0.114 µM; in the test on DMS 114 small cell lung it was 0.904 µM; in the test on P388/ADR leukemia, 1.84 µM. In addition, the figures for the TGI with P388 leukemia and with DLD-1 colon were 0.435 µM and over 3.67 µM, respectively.
In the test on 786-0 renal, `O=NC1C(Cl)C2CC1C1C(Br)C(Br)CC21` (centres undefined) displayed a TGI of over 100 µM.
On to `N#CC(c1ccccc1)c1nc2ccc(=N)cc-2n(O)c1C(C#N)c1ccccc1` (centres undefined), for which the TGI in the test on XF 498 CNS, with HOP-18 NSCLC, with DMS 273 small cell lung, with RXF-631 renal, with 786-0 renal and with DLD-1 colon was over 100 µM throughout.
In the case of `CN1CCCCC1CCN1CCCCC1` (centres undefined), the TGI with BT-549 breast, in the test with 786-0 renal and in the test with MDA-N was over 100 µM throughout.
As to `CN(C)CCNc1nc(-c2ccc3ccccc3c2)nc2nc[nH]c12`, the TGI in the test with BT-549 breast came out at 23.4 µM; in the test with 786-0 renal it was 32.1 µM; in the test on MDA-N, 23.2 µM.
As for `CN(C)c1ccc(/C=N\NC(=O)CSCC(=O)N/N=C/c2ccc(N(C)C)cc2)cc1`, the TGI in the test on BT-549 breast was 80.4 µM; with 786-0 renal, over 100 µM.
Regarding `CC12CCC(C(=O)OC1=O)C(C)(C)O2` (centres undefined), the TGI in the test on BT-549 breast and in the test with MDA-N was over 100 µM each time.
Take `Cc1c2cc[n+](CCN3CCCCC3)cc2c(C)c2c1[nH]c1ccc(O)cc12`: the TGI stood at 20.3 µM in the test on SN12K1 renal; 37 µM with HOP-18 NSCLC; 17.1 µM with DMS 273 small cell lung; 21.6 µM with DMS 114 small cell lung; 28.7 µM in the test on BT-549 breast; 21.6 µM in the test with 786-0 renal. Moreover, the TGI in the test on P388/ADR leukemia stood at 31.8 µM; in the test on MDA-N, 51 µM; with DLD-1 colon, 49.6 µM.

The values are drawn from PubChem BioAssay (NCI).
